Laboratory results from patent US20150093333A1, “COMPOSITIONS, METHODS AND USES FOR PEPTIDES IN DIAGNOSIS, PROGRESSION AND TREATMENT OF CANCERS” (THE REGENTS OF THE UNIVERSITY OF COLORADO, body corporate, priority 2003, published 2015).

Columns and labels:
synthetic lipid vesicles = assay: Fluorescence enhancement assay of NBD-labeled MARCKS peptides with synthetic vesicles; type: binding
Text: In another exemplary method, lipid vesicles were employed to the curvature-sensing behavior of the MARCKS derived peptides with various sizes and lipid components. The membrane curvature is defined as the reciprocal of the diameter of a particular particle, e.g., smaller-sized vesicles present highly curved membrane bilayers. A series of lipid models were made to represent various lipid components that closely resemble the lipid composition of biological membranes. […] Dynamic light scattering (DLS) and negative-stain transmission electron microscopy (TEM) were performed to confirm the different vesicle sizes following the pressure-controlled extrusion process through different membrane diameter pores. Commercial polystyrene beads were used as the calibration standard for the vesicle size validation experiments. Furthermore, a time-course experiment was carried out to confirm the stability of the vesicles up to 16 hours. Three different membrane diameters were extruded for the following biophysical characterizations: 30 nm, 100 nm, 400 nm, reflecting different membrane curvatures.
Next, a fluorescence enhancement assay was conducted to further quantify the curvature- and PS-sensing behavior of MARCKS-ED. Appropriate controls were performed to confirm that the fluorophore alone had no effect on the observed fluorescence enhancement (data not shown). FIG. 4 represents histogram data of fluorescence enhancement assay with and fluorescence anisotropy titration of the NBD labeled MARCKS derived peptides. Upon binding to lipid vesicles, the fluorescence intensity of NBD-MARCKS-ED increased due to vesicle binding and changes in the hydrophobic environment surrounding the fluorophore, concurring with a slight blue shift of the maximum emission wavelength. The emission spectra of all NBD-labeled peptides were recorded using a Fluorolog-3 fluorometer with λex=480 nm. The peptides and protein were tested at a concentration of 500 nM in PBS (pH 7.40) treated with 500 μM synthetic vesicles of different vesicles sizes. […] The positive control C2AB (200 nM) from the rat Synaptotagmin-1 (Syn-1) protein (G374, residues 96-421) was treated with CaCl2 (2.5 mM) and observed with λex of 275 nm and emission range of 300-450 nm. The untreated peptide and Ca^2+-C2AB samples were corrected by the PBS (pH=7.40) blank solution for the peptides and PBS with Ca^2+ for the Ca^2+-C2AB sample. All samples were prepared and incubated overnight in 4° C.
FIG. 4A illustrates a histogram plot of fluorescence intensity of MARCKS-ED treated with lipid vesicles of various sizes. […] Last, the fluorescence intensity differences were less significant with vesicles containing no PS. […]

microvesicles in plasma = assay: Nanoparticle tracking analysis of microvesicles in plasma from stressed rats treated with MARCKS peptides; type: binding, rat; conditions: Alexa Fluor 546 labeled peptides 55 nM
Procedure: These isolated microvesicles were measured by nanoparticle tracking analysis (NTA) to confirm their average size (ø=56 nm). Tracking analyses were performed using the NanoSight LM10-HS instrument (Amesbury, UK) equipped with a 532 nm laser and observed at scatter and fluorescence modes (filter=550 nm). The instrument was calibrated using commercially available 50 nm polystyrene beads. […] Alexa Fluor 546™-labeled mouse anti-rat CD63 and unconjugated Alexa Fluor 546™ were used as positive and negative controls, respectively. The profiles of MARCKS-ED-Alexa Fluor 546™ and Alexa Fluor 546™ in the absence of microvesicles were also investigated to confirm that these show negligible scatter and fluorescence background signals under identical NTA conditions.
FIG. 5A represents fluorescence enhancement assay with MARCKS-ED incubated with the isolated microvesicles. Peptide MARCKS-ED ([…]) not treated with microvesicles was used as a negative control. Annexin-V (a positive control) and MARCKS-ED were incubated with the isolated rat microvesicles. Fluorescence was normalized to the negative control. […] The diameter size and particle count of the isolated microvesicles detected by MARCKS-ED was further quantified. Nanoparticle tracking analysis (NTA) uses a laser for scatter and fluorescence modes to track small particles by Brownian motion, providing a robust method for detecting nano-sized microvesicles. Under the fluorescence mode with the emission filter set for the Alexa Fluor 546™, the particles that bound to MARCKS-ED, MARCKSmut1, and MARCKSmut2peptides were observed.
FIG. 5B illustrates the results of NTA of microvesicles treated with MARCKS derived peptides. […] The untreated plasma samples were detected using the scatter mode and treated samples were monitored by tracking the fluorescence of Alexa Fluor 546™ conjugated to the MARCKS-ED MARCKSmut1 and MARCKSmut2 peptides. […] Furthermore, blank samples were performed to rule out possible artifacts of background fluorescence from the peptides, the vesicles and the unconjugated dye.

[1] = test system: PS-exposing cell membranes; assay: Fluorescence staining of PS-exposing membranes in dissected gonads of C. elegans; type: in vivo; conditions: wild type (N2), tat-1(tm3117) and ced-7(n2094) animals
Procedure: Fluorescence staining assays were carried out in an acceptible C. elegans model with PS-exposing cell membranes. […] NBD-MARCKS-ED was used to stain the dissected gonads of wild type (N2) animals, tat-1(tm3117) mutant animals, and engulfment-deficient ced-7 (n2094) mutant animals, respectively. 36 hour old hermaphrodite adult animals were collected and gently dissected by cutting their heads in a depression slide with a gonad dissection buffer (previously presented) to expose the gonads. The exposed gonads were then washed once in the dissection buffer and transferred to a dissection buffer containing 4 μM of Hoechst 33342 and 20 μM of NBD labeled MARCKS-ED peptide, 20 μM NBD-MARCKSmut1 peptide, or 10 nM Alexa Fluor 488-conjugated Annexin-V for 45 minutes. Gonads were washed one more time in the dissection buffer, placed on a 5% agarose pad, and visualized using a Nomarski microscope equipped with an epifluorescence detector.
FIGS. 6A-6C illustrate exemplary staining results using MARCKS derived peptides and Annexin V. PS is typically kept in the inner leaflet of plasma membranes in living cells and is exposed on the cell surface only under certain cellular events, i.e., when cells undergo apoptosis or lose the ability to maintain the PS asymmetry with a tat-1 gene mutation. FIG. 6A represents the staining results with labeled MARCKS-ED in wild type and mutants C. elegans. […] FIG. 6B represents the staining results with labeled MARCKSmut1 in wild type and mutants C. elegans. […] In FIGS. 6A-6B, nuclei were stained with Hoechst 33342. Annexin-V, a known PS-sensor, was also used to stain the gonads of tat-1 and ced-7 mutant C. elegans. […] Hoechst33342 (4 μM), FITC-AnnexinV (10 nM) and Nomarski images are shown. […] Scale bar=10 μm.

- reversal of binding by CaM (synthetic lipid vesicles; addition of CaM): could be partially reversed
Sequence: KKKKKRFSFKKSFKLSGFSFKKNKK [MARCKS-ED]
- fluorescence intensity increase, 30 nm vs 400 nm vesicles (synthetic lipid vesicles; peptide 500 nM, 500 μM vesicles containing PS): approximately 1.5 fold
- binding to microvesicles in whole plasma (NTA fluorescence mode) (microvesicles in plasma): selectively bind to small-sized microvesicles in whole plasma
- staining of PS-exposed membranes [1]: recognizes PS exposed on the surface of all germ cells in the tat-1 (tm3117) mutant and un-engulfed apoptotic germ cell corpses in the ced-7(n2094) mutant
